Results published in PMC6304572, “Simultaneous Evaluation of the Influence of Panax ginseng on the Pharmacokinetics of Three Diester Alkaloids after Oral Administration of Aconiti Lateralis Radix in Rats Using UHPLC/QQQ-MS/MS” (Evidence-based Complementary and Alternative Medicine : eCAM, 2018).
Read-outs that look alike come from different tables or passages of the source.

Experiments:
[1] = Pharmacokinetics of three diester alkaloids in rat plasma after oral Aconiti Lateralis Radix extract, with or without 7-day P. ginseng pretreatment; type: in vivo, Sprague-Dawley rats; conditions: for CL/F / Cmax / Tmax / Vd/F / half-life: Sprague-Dawley, rat, in vivo, po, 1 g/kg; for CL/F / Cmax / Tmax / Vd/F / half-life / AUC(0-t) / AUC(0-∞): oral Aconiti Lateralis Radix extract 1 g/kg on 8th day; for CL/F: read-out: CLz/F (converted); for Cmax: read-out: Cmax; for Tmax: read-out: Tmax; for Vd/F: read-out: Vz/F; for half-life: read-out: t1/2z (converted)
Experimental: Rats were randomly divided into 4 groups: control group, P. ginseng (low, middle, and high) group. 7 days of oral administration of P. ginseng extract was administered at a dosage of 0.1, 1, 10 g/kg for P. ginseng group (low, middle, and high), respectively, once daily. Distilled water was administered at a dosage of 2 ml/kg for control group, simultaneously. On the 8th day, Aconiti Lateralis Radix extracts (1 g/kg) were orally administered to all groups. 0.5 ml plasma samples were collected in 1.5 ml centrifuge tubes (containing heparin sodium) at 10, 30, 60, 90, 120, 240, 480, 720, 1440, and 2880 min. All plasma samples were centrifuged for 15 min at 4000g. The supernatant was separated to another 1.5 ml centrifuge tubes and stored at -20°C.
Liquid-liquid extraction (ethyl acetate) and protein precipitation (50% acetonitrile plus 50% methanol) methods were compared to determine the best method to prepare the plasma sample. Liquid-liquid extraction method was chosen, due to reproducibly high recovery rates. The details of the extraction are as follows: 10 μL carbamazepine (IS) was added to 90 μL plasma, spiked with 400 μL ethyl acetate and the mixture vortexed for 15 seconds. After centrifugation at 12,000g for 10 min, the supernatant was transferred to another 1.5 mL centrifuge tube and dried under a stream of nitrogen at 37°C. The residue was redissolved in 100 μL 50% acetonitrile and centrifuged at 12,000g for 10 min and filtered through a 0.22 μm Micropore membrane. A 5 μL volume of supernatant was injected into LC-MS system for analysis.
Xevo TQ-S (Waters, USA) was utilized for the analysis of all biological samples. Chromatographic separation was conducted on Waters ACQUITY UPLC HSS T3 1.8 μm column (2.1 mm × 100 mm). Column temperature was 45°C and the flow rate was 0.5ml/min. Room temperature was 20 ± 2°C. Phase A consisted of water and 0.1% formic acid (v/v), and phase B consisted of acetonitrile (ACN) 0.1% formic acid (v/v). Column separation was performed by gradient elution: 0-0.5 min, 10% B; 1-2 min, 90% B; 4 min, 10% B.
Electrospray ionization (ESI) and positive ion V mode were used to determine the samples. The main parameters for mass spectrum were set as follows: capillary voltage: 3.5 kv; sample cone: 60 v; source offset: 50 v; source temperature: 150°C; desolvation temperature: 350°C; cone gas flow: 150 L/h; desolvation gas flow: 650 L/h; injection volume: 5 μL.
The data was acquired and analyzed by XEVO-QT-S (Waters). The pharmacokinetic parameters were analyzed by DAS pharmacokinetic program (Version 2.0). SAS statistical software was used to determine the difference between each group. All data was presented as mean ± SD, and P<0.05 was considered statistically significant.

[2] = Stability of the three alkaloids in rat plasma QC samples (4°C, room temperature, freeze-thaw); type: in vitro ADME; conditions: for Freeze-thaw Accuracy: freeze-thaw three times; for Room temperature stability (24 h) Accuracy: room temperature (about 25°C)
Experimental: Plasma from rats without any processing was used to evaluate the detection methods. 0.1, 0.25, 0.5, 1, 2.5, 5, 10 ng/ml were chosen to calculate standards curve. 0.1, 0.4, 4, 8 ng/mL were selected as the QC sample (n = 4) with repeated operations used to calculate accuracy and precision of the detection method. The data was acquired after keeping the samples at either +4°C 24 hours or room temperature (about 25°C) for 24 hours as well as using freeze-thaw methods (three times) to evaluate stability. Recovery of the developed methods was calculated by the following formula: recovery = measured value/ theoretical value × 100%.

[3] = P. ginseng-high (10 g/kg oral, 7 days)
[4] = P. ginseng-low (0.1 g/kg oral, 7 days)
[5] = P. ginseng-middle (1 g/kg oral, 7 days)
[6] = control group (distilled water 7 days)

SMILES | CL/F [1, 3] [mL/min/kg] | Cmax [1, 3] [ng/mL] | Tmax [1, 3] [h] | Vd/F [1, 3] [L/kg] | half-life [1, 3] [h] | CL/F [1, 4] [mL/min/kg] | Cmax [1, 4] [ng/mL] | Tmax [1, 4] [h] | Vd/F [1, 4] [L/kg] | half-life [1, 4] [h] | CL/F [1, 5] [mL/min/kg] | Cmax [1, 5] [ng/mL] | Tmax [1, 5] [h] | Vd/F [1, 5] [L/kg] | half-life [1, 5] [h] | CL/F [1, 6] [mL/min/kg] | Cmax [1, 6] [ng/mL] | Tmax [1, 6] [h] | Vd/F [1, 6] [L/kg] | half-life [1, 6] [h] | also measured
CCN1C[C@]2(COC)[C@H](O)C[C@H](OC)[C@@]34[C@@H]5C[C@@]6(O)[C@H](OC(=O)c7ccccc7)[C@@H]5[C@@](OC(C)=O)([C@@H]([C@H](OC)[C@H]23)[C@@H]14)[C@@H](O)[C@@H]6OC [Aconitine] | 852 | 11.5 ± 3.49 | 1.33 ± 0.41 | 1550 ± 686 | 26.5 ± 23.3 | 2870 | 5.03 ± 3.02 | 4 ± 3.27 | 2480 ± 945 | 10.1 ± 3.72 | 2830 | 5.79 ± 2.8 | 2.11 ± 2.97 | 1460 ± 190 | 6.14 ± 1.18 | 3760 | 3.88 ± 0.92 | 2.67 ± 2.91 | 3350 ± 1370 | 10.7 ± 4.78 | AUC(0-t) [1, 3]: 162.98 ± 48.50^∗∗ μg/L∗h; AUC(0-∞) [1, 3]: 228.56 ± 100.03^∗∗ μg/L∗h; AUC(0-t) ([1]; P. ginseng-high (10 g/kg oral, 7 days), listed as aconitine): 162.98 ± 48.50 μg/L∗h; AUC(0-t) [1, 4]: 58 ± 13.02 μg/L∗h; AUC(0-∞) [1, 4]: 60.32 ± 12.99 μg/L∗h; AUC(0-t) [1, 5]: 61.05 ± 12.82^∗ μg/L∗h; AUC(0-∞) [1, 5]: 61.49 ± 13.16^∗ μg/L∗h; AUC(0-t) ([1]; P. ginseng-middle (1 g/kg oral, 7 days), listed as aconitine): 61.05 ± 12.82 μg/L∗h; AUC(0-t) [1, 6]: 40.77 ± 9.71 μg/L∗h; AUC(0-∞) [1, 6]: 46.20 ± 9.57 μg/L∗h; 4°C temperature stability (24 h) Accuracy ([2]; QC conc. 0.40 ng/mL): 99.65 ± 2.16%; Freeze-thaw Accuracy ([2]; QC conc. 0.40 ng/mL): 99.71 ± 2.06%; Room temperature stability (24 h) Accuracy ([2]; QC conc. 0.40 ng/mL): 100.49 ± 2.52%; 4°C temperature stability (24 h) Accuracy ([2]; QC conc. 4.00 ng/mL): 98.98 ± 9.99%; Freeze-thaw Accuracy ([2]; QC conc. 4.00 ng/mL): 99.91 ± 6.23%; Room temperature stability (24 h) Accuracy ([2]; QC conc. 4.00 ng/mL): 96.29 ± 3.26%; 4°C temperature stability (24 h) Accuracy ([2]; QC conc. 8.00 ng/mL): 101.57 ± 1.29%; Freeze-thaw Accuracy ([2]; QC conc. 8.00 ng/mL): 100.22 ± 1.87%; Room temperature stability (24 h) Accuracy ([2]; QC conc. 8.00 ng/mL): 97.66 ± 4.54%
COC[C@@]12CC[C@H](OC)[C@]34C(C([C@H](OC)[C@H]13)[C@]1(OC(C)=O)[C@H]3[C@@H](OC(=O)c5ccccc5)[C@](O)(C[C@H]34)[C@@H](OC)[C@@H]1O)N(C)C2 [Hypaconitine] | 2320 | 4.87 ± 1.36 | 1.83 ± 1.29 | 2280 ± 954 | 11.7 ± 4.21 | 2380 | 4.02 ± 2.01 | 3.61 ± 3.47 | 2020 ± 819 | 9.7 ± 3.55 | 2360 | 5.85 ± 2.71 | 2.53 ± 3.01 | 1400 ± 272 | 6.97 ± 1.77 | 3400 | 4.63 ± 1.96 | 2.67 ± 2.91 | 3880 ± 1700 | 14.1 ± 5.41 | Change of Cmax versus control ([1]; all P. ginseng groups compared to control): did not change; AUC(0-t) [1, 3]: 71.75 ± 22.2^∗ μg/L∗h; AUC(0-∞) [1, 3]: 77.26 ± 25.15^∗ μg/L∗h; AUC(0-t) ([1]; P. ginseng-high (10 g/kg oral, 7 days), listed as hypaconitine): 71.75 ± 22.2 μg/L∗h; AUC(0-t) [1, 4]: 65.64 ± 13.14 μg/L∗h; AUC(0-∞) [1, 4]: 70.68 ± 8.89^∗ μg/L∗h; AUC(0-t) [1, 5]: 70.71 ± 7.55^∗ μg/L∗h; AUC(0-∞) [1, 5]: 71.49 ± 8.07^∗ μg/L∗h; AUC(0-t) ([1]; P. ginseng-middle (1 g/kg oral, 7 days), listed as hypaconitine): 70.71 ± 7.55 μg/L∗h; AUC(0-t) [1, 6]: 48.12 ± 24.59 μg/L∗h; AUC(0-∞) [1, 6]: 60.16 ± 28.03 μg/L∗h; 4°C temperature stability (24 h) Accuracy ([2]; QC conc. 0.40 ng/mL): 97.44 ± 2.35%; Freeze-thaw Accuracy ([2]; QC conc. 0.40 ng/mL): 99.71 ± 2.06%; Room temperature stability (24 h) Accuracy ([2]; QC conc. 0.40 ng/mL): 100.49 ± 2.52%; 4°C temperature stability (24 h) Accuracy ([2]; QC conc. 4.00 ng/mL): 104.96 ± 5.49%; Freeze-thaw Accuracy ([2]; QC conc. 4.00 ng/mL): 100.26 ± 6.03%; Room temperature stability (24 h) Accuracy ([2]; QC conc. 4.00 ng/mL): 98.72 ± 4.30%; 4°C temperature stability (24 h) Accuracy ([2]; QC conc. 8.00 ng/mL): 101.13 ± 4.82%; Freeze-thaw Accuracy ([2]; QC conc. 8.00 ng/mL): 102.33 ± 3.19%; Room temperature stability (24 h) Accuracy ([2]; QC conc. 8.00 ng/mL): 100.64 ± 3.60%
